Columns and labels:
IGF-1R [1] = target: T1, IGF-1R (Homo sapiens (Human), UniProt P08069); test: Example B-1: IGF-1R Assay (PC3 cells, IGF1 stimulation, AlphaLISA); assay type: cell-based; conditions: 200 ng/mL IGF1 stimulation, read-out: Biological Activity against IGF-1R IC50
In short: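 PC3 cells were serum-starved 2 h, treated with serially diluted compounds for 2 h, then stimulated with IGF1 (200 ng/mL final) for 30 min. Lysates were read by AlphaLISA; % inhibition was calculated relative to vehicle and EC80 controls, with IC50 values binned into ranges.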
Target sequence in this assay (P08069 31-1367): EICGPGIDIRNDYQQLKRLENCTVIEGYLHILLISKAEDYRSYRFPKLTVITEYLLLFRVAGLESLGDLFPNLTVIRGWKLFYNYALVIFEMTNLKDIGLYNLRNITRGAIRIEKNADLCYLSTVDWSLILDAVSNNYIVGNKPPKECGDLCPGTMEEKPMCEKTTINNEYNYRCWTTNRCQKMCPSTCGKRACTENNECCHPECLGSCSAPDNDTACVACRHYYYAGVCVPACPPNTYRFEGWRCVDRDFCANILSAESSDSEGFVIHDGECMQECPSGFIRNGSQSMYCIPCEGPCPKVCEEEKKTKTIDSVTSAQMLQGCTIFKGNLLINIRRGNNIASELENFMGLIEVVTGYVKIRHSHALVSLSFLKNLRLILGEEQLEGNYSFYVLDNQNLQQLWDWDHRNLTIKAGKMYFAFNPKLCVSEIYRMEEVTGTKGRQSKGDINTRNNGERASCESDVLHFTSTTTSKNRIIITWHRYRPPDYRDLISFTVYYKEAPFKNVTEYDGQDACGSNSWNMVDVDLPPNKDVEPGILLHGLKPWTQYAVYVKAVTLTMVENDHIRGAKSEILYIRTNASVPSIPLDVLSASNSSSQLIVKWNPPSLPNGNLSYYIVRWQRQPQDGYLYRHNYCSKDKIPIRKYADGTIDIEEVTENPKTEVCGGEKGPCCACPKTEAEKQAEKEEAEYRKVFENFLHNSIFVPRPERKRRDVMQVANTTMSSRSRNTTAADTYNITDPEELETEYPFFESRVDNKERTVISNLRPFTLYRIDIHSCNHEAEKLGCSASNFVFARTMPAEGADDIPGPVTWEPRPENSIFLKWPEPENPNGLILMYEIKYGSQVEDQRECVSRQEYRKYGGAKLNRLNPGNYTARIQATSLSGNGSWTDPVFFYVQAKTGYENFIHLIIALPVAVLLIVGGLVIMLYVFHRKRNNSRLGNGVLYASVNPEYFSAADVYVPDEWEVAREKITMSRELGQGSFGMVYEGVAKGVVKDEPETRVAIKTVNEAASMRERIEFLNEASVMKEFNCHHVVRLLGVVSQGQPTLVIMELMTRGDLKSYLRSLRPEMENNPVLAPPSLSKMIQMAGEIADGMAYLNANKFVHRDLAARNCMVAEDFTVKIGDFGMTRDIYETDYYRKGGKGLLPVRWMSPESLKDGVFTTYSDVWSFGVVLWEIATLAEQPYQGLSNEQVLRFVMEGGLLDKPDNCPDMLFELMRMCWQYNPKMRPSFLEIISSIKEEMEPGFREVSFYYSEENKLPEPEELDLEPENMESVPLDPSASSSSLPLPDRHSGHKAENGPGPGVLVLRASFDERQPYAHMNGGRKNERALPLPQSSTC

IGF-1R [2] = target: T1, IGF-1R; test: Example B-2: IGF-1R Assay (PathHunter cell lines, EC80 agonist challenge); assay type: cell-based; conditions: read-out: IC50 (Biological Activity against IGF-1R)
Description: PathHunter cell lines were expanded from freezer stocks according to standard procedures. Cells were seeded in a total volume of 20 μL into white walled, 384-well microplates and incubated for the appropriate time prior to testing.
Cells are pre-incubated with compound followed by EC80 agonist challenge as follows: • 1. Intermediate dilution of sample stocks was performed to generate 5× sample in assay buffer. • 2. 5 μL of 5× sample was added to cells and incubated at 37° C. for 60 minutes. Vehicle concentration was 1%. • 3. 5 μL of 6×EC80 agonist in assay buffer was added to the cells and incubated at room temperature for 3 hours.
Assay signal was generated through a single addition of 12.5 or 15 μL (50% v/v) of PathHunter Detection reagent cocktail for agonist and antagonist assays respectively, followed by a one hour incubation at room temperature. Microplates were read following signal generation with a PerkinElmer Envision™ instrument for chemilumine-scent signal detection.
Compound activity was analyzed using CBIS data analysis suite (ChemInnovation, CA). Percentage inhibition was calculated using the following formula: % Inhibition=100%×(1−(mean RLU of test sample−mean RLU of vehicle control)/(mean RLU of EC80 control−mean RLU of vehicle control)). The activity for representative examples of the invention is shown in the following table, wherein A: IC50≤500 nM; B: 500 nM<IC50≤2 μM; C: […]≤10 μM; D: IC50>[…].
Target sequence in this assay (P08069 31-1367, species assumed): as the sequence (P08069 31-1367) above

SMILES	IC50 (IGF-1R [1]) [nM]	IC50 (IGF-1R [2]) [nM]
COc1cc(Nc2nccc(Nc3cnc4ccc(Cl)nc4c3)n2)ccc1O[C@H]1C[C@@H](N(C)C)C1 [Compound 10, 4-(6-chloro-1,5-diaza-3-naphthylamino)-2-{3-methoxy-4-[(1s,3s)-3-(dimethylamino)cyclobutoxy]phenylamino}pyrimidine]	≤ 500	500 to 2000
COc1cc(Nc2nccc(Nc3cnc4ccccc4c3)n2)ccc1O[C@H]1C[C@@H](N2CCOCC2)C1 [Compound 21, 2-{3-methoxy-4-[(1s,3s)-3-morpholinocyclobutoxy]phenylamino}-4-(3-quinolylamino)pyrimidine]	≤ 500	≤ 500
COc1cc(Nc2nccc(Nc3cnc4c(c3)CCC3(CCC3)C4)n2)ccc1O[C@H]1C[C@H](N(C)C)C1 [Compound 77, 4-(6′,8′-dihydro-5′H-spiro[cyclobutane-1,7′-quinolin]-3′-ylamino)-2-{3-methoxy-4-[(1r,3r)-3-(dimethylamino)cyclobutoxy]phenylamino}pyrimidine]	≤ 500	≤ 500
COc1cc(Nc2nccc(Nc3cc4cc(Cl)ccc4[nH]c3=O)n2)ccc1O[C@H]1C[C@H](N(C)C)C1 [Compound 109, 6-chloro-3-(2-{3-methoxy-4-[(1r,3r)-3-(dimethylamino)cyclobutoxy]phenyl-amino}-4-pyrimidinylamino)-1,2-dihydro-2-quinolinone]	≤ 500	500 to 2000
COc1cc(Nc2nccc(Nc3cnc4cc(F)c(F)cc4c3)n2)ccc1O[C@H]1C[C@@H](N(C)C)C1 [Compound 115, 4-(6,7-difluoro-3-quinolylamino)-2-{3-methoxy-4-[(1s,3s)-3-(dimethylamino)cyclobutoxy]phenylamino}pyrimidine]	≤ 500	500 to 2000
COc1cc(Nc2nccc(Nc3cnc4c(Cl)cc(F)cc4c3)n2)ccc1O[C@H]1C[C@@H](N(C)C)C1 [Compound 116, 4-(8-chloro-6-fluoro-3-quinolylamino)-2-{3-methoxy-4-[(1s,3s)-3-(dimethylamino)cyclobutoxy]phenylamino}pyrimidine]	≤ 500	500 to 2000
CN(C)CC1COc2ccc(Nc3nccc(Nc4cnc5ccc(Cl)cc5c4)n3)cc2O1 (stereo not drawn) [Compound 142, N4-(6-chloroquinolin-3-yl)-N2-(3-((dimethylamino)methyl)-2,3-dihydrobenzo[b][1,4]dioxin-6-yl)pyrimidine-2,4-diamine]	500 to 2000	500 to 2000
CN(C)CCN1CCc2ccc(Nc3nccc(Nc4cnc5ccccc5c4)n3)cc21 [Compound 143, N2-(1-(2-(dimethylamino)ethyl)indolin-6-yl)-N4-(quinolin-3-yl)pyrimidine-2,4-diamine]	≤ 500	≤ 500
CN(C)C[C@H]1COc2cc(Nc3nccc(Nc4cnc5ccc(Cl)cc5c4)n3)ccc2O1 [Compound 144, (S)—N4-(6-chloroquinolin-3-yl)-N2-(2-((dimethylamino)methyl)-2,3-dihydrobenzo[b][1,4]dioxin-6-yl)pyrimidine-2,4-diamine]	≤ 500	≤ 500
CN(C)C[C@@H]1COc2cc(Nc3nccc(Nc4cnc5ccc(Cl)cc5c4)n3)ccc2O1 [Compound 145, (R)—N4-(6-chloroquinolin-3-yl)-N2-(2-((dimethylamino)methyl)-2,3-dihydrobenzo[b][1,4]dioxin-6-yl)pyrimidine-2,4-diamine]	≤ 500	≤ 500
CN(C)CC(=O)N1CCc2cc(Nc3nccc(Nc4cnc5ccc(Cl)cc5c4)n3)ccc21 [Compound 146, 1-(5-((4-((6-chloroquinolin-3-yl)amino)pyrimidin-2-yl)amino)indolin-1-yl)-2-(dimethylamino)ethan-1-one]	≤ 500	≤ 500
CN(C)CC(=O)N1CCc2ccc(Nc3nccc(Nc4cnc5cc(F)c(F)cc5c4)n3)cc21 [Compound 147, 1-(6-((4-((6,7-difluoroquinolin-3-yl)amino)pyrimidin-2-yl)amino)indolin-1-yl)-2-(dimethylamino)ethan-1-one]	500 to 2000	500 to 2000
CN(C)CC1CN(C)c2cc(Nc3nccc(Nc4cnc5cc(F)c(F)cc5c4)n3)ccc2O1 (stereo not drawn) [Compound 148, N4-(6,7-difluoroquinolin-3-yl)-N2-(2-((dimethylamino)methyl)-4-methyl-3,4-dihydro-2H-benzo[b][1,4]oxazin-6-yl)pyrimidine-2,4-diamine]	≤ 500	≤ 500
CN(C)CC(=O)N1CCOc2ccc(Nc3nccc(Nc4cnc5cc(F)c(F)cc5c4)n3)cc21 [Compound 149, 1-(6-((4-((6,7-difluoroquinolin-3-yl)amino)pyrimidin-2-yl)amino)-2,3-dihydro-4H-benzo[b][1.4]oxazin-4-yl)-2-(dimethylamino)ethan-1-one]	≤ 500	≤ 500
CN1CCOc2ccc(Nc3nccc(Nc4cnc5cc(F)c(F)cc5c4)n3)cc21 [Compound 150, N4-(6,7-difluoroquinolin-3-yl)-N2-(4-methyl-3,4-dihydro-2H-benzo[b][1,4]oxazin-6-yl)pyrimidine-2,4-diamine]	500 to 2000	500 to 2000

Other lines, results leading:

IC50 (IGF-1R [1]) [nM]	IC50 (IGF-1R [2]) [nM]	SMILES
≤ 500	≤ 500	COc1cc(Nc2nccc(Nc3cnc4ccccc4c3)n2)ccc1O[C@H]1CC[C@H](N(C)C)CC1 [Compound 17, 2-{3-methoxy-4-[(1r,4r)-4-(dimethylamino)cyclohexyloxy]phenylamino}-4-(3-quinolylamino)pyrimidine]
≤ 500	≤ 500	CN(C)CC(=O)N1CCc2ccc(Nc3nccc(Nc4cnc5ccccc5c4)n3)cc21 [Compound 92, 2-(dimethylamino)-1-{6-[4-(3-quinolylamino)-2-pyrimidinylamino]-1-indolinyl}-1-ethanone]
≤ 500	≤ 500	COc1cc(Nc2nccc(Nc3cnc4ccccc4c3)n2)ccc1N1CCN(C)CC1 [Compound 94, 2-[3-methoxy-4-(4-methyl-1-piperazinyl)phenylamino]-4-(3-quinolylamino)pyrimidine]
≤ 500	≤ 500	CN(C)CC(=O)N1CCc2ccc(Nc3nccc(Nc4cnc5ccc(Cl)cc5c4)n3)cc21 [Compound 129, 1-(6-((4-((6-chloroquinolin-3-yl)amino)pyrimidin-2-yl)amino)indolin-1-yl)-2-(dimethylamino)ethan-1-one]
≤ 500	≤ 500	CN(C)CC(=O)N1CCc2ccc(Nc3nccc(Nc4cnc5ccc(Br)cc5c4)n3)cc21 [Compound 130, 1-(6-((4-((6-bromoquinolin-3-yl)amino)pyrimidin-2-yl)amino)indolin-1-yl)-2-(dimethylamino)ethan-1-one]
≤ 500	≤ 500	CN(C)CC1COc2cc(Nc3nccc(Nc4cnc5ccccc5c4)n3)ccc2O1 (stereo not drawn) [Compound 135, N2-(2-((dimethylamino)methyl)-2,3-dihydrobenzo[b][1,4]dioxin-6-yl)-N4-(quinolin-3-yl)pyrimidine-2,4-diamine]
≤ 500	≤ 500	CN(C)CC1COc2cc(Nc3nccc(Nc4cnc5ccc(Cl)cc5c4)n3)ccc2O1 (stereo not drawn) [Compound 136, N4-(6-chloroquinolin-3-yl)-N2-(2-((dimethylamino)methyl)-2,3-dihydrobenzo[b][1,4]dioxin-6-yl)pyrimidine-2,4-diamine]
≤ 500	≤ 500	CN(C)CC(=O)N1CCc2ncc(Nc3nccc(Nc4cnc5ccccc5c4)n3)cc21 [Compound 137, 2-(dimethylamino)-1-(6-((4-(quinolin-3-ylamino)pyrimidin-2-yl)amino)-2,3-dihydro-1H-pyrrolo[3,2-b]pyridin-1-yl)ethan-1-one]
≤ 500	≤ 500	CN(C)CC(=O)N1CCc2ccc(Nc3nccc(Nc4cnc5c(F)c(F)ccc5c4)n3)cc21 [Compound 138, 1-(6-((4-((7,8-difluoroquinolin-3-yl)amino)pyrimidin-2-yl)amino)indolin-1-yl)-2-(dimethylamino)ethan-1-one]
≤ 500	≤ 500	CN1CC(N2CCc3ccc(Nc4nccc(Nc5cnc6ccccc6c5)n4)cc32)C1 [Compound 139, N2-(1-(1-methylazetidin-3-yl)indolin-6-yl)-N4-(quinolin-3-yl)pyrimidine-2,4-diamine]
≤ 500	≤ 500	CN(C)CC1COc2ccc(Nc3nccc(Nc4cnc5ccccc5c4)n3)cc2O1 (stereo not drawn) [Compound 140, N2-(3-((dimethylamino)methyl)-2,3-dihydrobenzo[b][1,4]dioxin-6-yl)-N4-(quinolin-3-yl)pyrimidine-2,4-diamine]
≤ 500	≤ 500	CN(C)CC(=O)N1CCc2ncc(Nc3nccc(Nc4cnc5ccc(Cl)cc5c4)n3)cc21 [Compound 141, 1-(6-((4-((6-chloroquinolin-3-yl)amino)pyrimidin-2-yl)amino)-2,3-dihydro-1H-pyrrolo[3,2-b]pyridin-1-yl)-2-(dimethylamino)ethan-1-one]

From patent US20250171431A1, “HETEROCYCLIC INHIBITORS OF IGF-1R FOR TREATMENT OF DISEASE” (HORIZON THERAPEUTICS IRELAND DAC, priority 2023, published 2025)
